Assay results published in PubChem BioAssay (NCI).
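Assay format: 96-well plates, 48-hour exposure. At the TGI there is no net growth.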

What was measured:
Assay in all cases: NCI-60 cell line screen, 48 h
HL-60(TB) leukemia = test system: HL-60(TB) leukemia
SN12C renal = test system: SN12C renal
SF-295 CNS = test system: SF-295 CNS
MCF7 breast = test system: MCF7 breast
OVCAR-8 ovarian = test system: OVCAR-8 ovarian
IGROV1 ovarian = test system: IGROV1 ovarian
HCC-2998 colon = test system: HCC-2998 colon
SF-268 CNS = test system: SF-268 CNS
SR leukemia = test system: SR leukemia
RXF 393 renal = test system: RXF 393 renal
PC-3 prostate = test system: PC-3 prostate
NCI-H460 lung = test system: NCI-H460 lung
SNB-19 CNS = test system: SNB-19 CNS
SW-620 colon = test system: SW-620 colon
UO-31 renal = test system: UO-31 renal
OVCAR-4 ovarian = test system: OVCAR-4 ovarian
EKVX NSCLC = test system: EKVX NSCLC
LOX IMVI melanoma = test system: LOX IMVI melanoma
786-0 renal = test system: 786-0 renal
SK-MEL-2 melanoma = test system: SK-MEL-2 melanoma
COLO 205 colon = test system: COLO 205 colon
SF-539 CNS = test system: SF-539 CNS
CCRF-CEM leukemia = test system: CCRF-CEM leukemia
M14 melanoma = test system: M14 melanoma
A549 NSCLC = test system: A549 NSCLC
TK-10 renal = test system: TK-10 renal
OVCAR-3 ovarian = test system: OVCAR-3 ovarian
T-47D breast = test system: T-47D breast
HCT-15 colon = test system: HCT-15 colon
HCT-116 colon = test system: HCT-116 colon
OVCAR-5 ovarian = test system: OVCAR-5 ovarian
SK-MEL-5 melanoma = test system: SK-MEL-5 melanoma
NCI/ADR-RES ovarian = test system: NCI/ADR-RES ovarian
MDA-MB-435 = test system: MDA-MB-435
HS 578T breast = test system: HS 578T breast
NCI-H522 lung = test system: NCI-H522 lung
K-562 leukemia = test system: K-562 leukemia
NCI-H23 lung = test system: NCI-H23 lung
U251 CNS = test system: U251 CNS
BT-549 breast = test system: BT-549 breast
HOP-92 NSCLC = test system: HOP-92 NSCLC
UACC-62 melanoma = test system: UACC-62 melanoma
MOLT-4 leukemia = test system: MOLT-4 leukemia
HT29 colon = test system: HT29 colon
DU-145 prostate = test system: DU-145 prostate
ACHN renal = test system: ACHN renal
MALME-3M melanoma = test system: MALME-3M melanoma
HOP-62 NSCLC = test system: HOP-62 NSCLC
MDA-N = test system: MDA-N
SNB-75 CNS = test system: SNB-75 CNS
CAKI-1 renal = test system: CAKI-1 renal
UACC-257 melanoma = test system: UACC-257 melanoma
RPMI-8226 leukemia = test system: RPMI-8226 leukemia
SK-OV-3 ovarian = test system: SK-OV-3 ovarian
KM12 colon = test system: KM12 colon
A498 renal = test system: A498 renal
SK-MEL-28 melanoma = test system: SK-MEL-28 melanoma
NCI-H226 lung = test system: NCI-H226 lung
MDA-MB-231 breast = test system: MDA-MB-231 breast
KM20L2 colon = test system: KM20L2 colon
LXFL 529 NSCLC = test system: LXFL 529 NSCLC
DMS 273 small cell lung = test system: DMS 273 small cell lung
SNB-78 CNS = test system: SNB-78 CNS
DLD-1 colon = test system: DLD-1 colon
M19-MEL melanoma = test system: M19-MEL melanoma
DMS 114 small cell lung = test system: DMS 114 small cell lung

Measured: TGI

COc1cccc2cc(C(=O)Nc3ccccn3)c(=N)oc12
82.9 µM: HL-60(TB) leukemia
10.6 µM: MOLT-4 leukemia
88.4 µM: OVCAR-3 ovarian
16.5 µM: SR leukemia
not listed: KM20L2 colon | LXFL 529 NSCLC | DMS 273 small cell lung | SNB-78 CNS | DLD-1 colon | M19-MEL melanoma | DMS 114 small cell lung
> 100 µM: all other assays above

CCOC(=O)c1c2cccccc2n2c(=O)cc(C)nc12
not listed: MCF7 breast | PC-3 prostate | T-47D breast | HCT-116 colon | SK-MEL-5 melanoma | NCI/ADR-RES ovarian | MDA-MB-435 | HS 578T breast | BT-549 breast | HOP-92 NSCLC | DU-145 prostate | MALME-3M melanoma | MDA-N | SNB-75 CNS | SK-OV-3 ovarian | MDA-MB-231 breast | DLD-1 colon | M19-MEL melanoma | DMS 114 small cell lung
> 100 µM: all other assays above

CC1=NN(C(=O)c2ccncc2)C(=O)C1N=Nc1ccc2ccccc2c1 (centres undefined)
10.2 µM: MDA-N
15.2 µM: HCC-2998 colon | MDA-MB-435
> 31.7 µM: SR leukemia
> 95.2 µM: SK-MEL-2 melanoma
> 20.6 µM: HL-60(TB) leukemia
> 70.7 µM: K-562 leukemia
> 38.1 µM: MOLT-4 leukemia
> 96.2 µM: M14 melanoma
not listed: KM20L2 colon | LXFL 529 NSCLC | DMS 273 small cell lung | SNB-78 CNS | DLD-1 colon | M19-MEL melanoma | DMS 114 small cell lung
> 100 µM: all other assays above

CC(=O)[O-].[O-]c1c(Cl)cc(Cl)cc1/C=N/Nc1ccccn1.[Zn+2]
0.736 µM: HL-60(TB) leukemia
0.675 µM: SR leukemia
0.581 µM: MOLT-4 leukemia
9.01 µM: EKVX NSCLC
> 100 µM: SN12C renal | KM20L2 colon | IGROV1 ovarian | HCC-2998 colon | NCI-H460 lung | SNB-19 CNS | UO-31 renal | LOX IMVI melanoma | 786-0 renal | COLO 205 colon | LXFL 529 NSCLC | A549 NSCLC | HCT-15 colon | HCT-116 colon | DLD-1 colon | M19-MEL melanoma | K-562 leukemia | U251 CNS | HT29 colon | MALME-3M melanoma | SNB-75 CNS | UACC-257 melanoma | KM12 colon | A498 renal | SK-MEL-28 melanoma | NCI-H226 lung
1.98 µM: SK-MEL-2 melanoma
5.41 µM: SF-295 CNS
2.43 µM: UACC-62 melanoma
0.605 µM: DMS 114 small cell lung
20.6 µM: NCI-H522 lung
0.803 µM: HOP-92 NSCLC
0.837 µM: OVCAR-8 ovarian
6.43 µM: OVCAR-5 ovarian
0.707 µM: OVCAR-3 ovarian
